Results taken from US9598441B2, “Therapeutic compounds and methods” (Wayne State University, priority 2011, dated 2017).
pIC50: −log10 of the molar value.

Target: T1, CARP-1 binding with APC-2 (Homo sapiens, UniProt Q8IX12)
T1 construct: made in house; host or cells: E. coli BL-21 (DE3)
T1 sequence (Q8IX12 951-980 limits assumed): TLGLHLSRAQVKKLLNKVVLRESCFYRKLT
Experiment: Fluorescence polarization assay (FPA) for inhibitors of CARP-1-APC-2 binding
Conditions: fluorescein-tagged A-epitope peptide and Gst-APC-2 (685-754)
Procedure: Although, several formats for FP are indicated in the published literature (Inglese, J., Johnson, R. L., Simeonov, A., Xia, M., Zheng, W., Austin, C. P., Auld, D. S. (2007) Nat. Chem. Biol. 3(8), 466-79), the assays using 96-well or higher density plates are often and routinely employed. Optimization of FP for HTS involves several steps including the determination of Kd values, optimization of the buffer conditions, incubation and measurement times, and determination of the DMSO tolerance of the assay. Our goal was to minimize variation and to aim for adequate signal:background without adversely effecting the sensitivity of the assay. The FP polarization values in milli-polarization (mp) were measured to determine changes in the mp (Amp=mp of bound peptide mp of free peptide), the Kd and Ki constants of the binding. A 30-mer CARP-1 peptide that contained APC-2-binding epitope (A-epitope peptide) was commercially synthesized (US Biologicals, MA), labeled with fluorescein at the N-terminus, and purified to >98% purity. Increasing concentrations of A-epitope peptide were incubated with the indicated quantities of the affinity-purified Gst-APC-2 (685-754) protein in assay buffer containing 0.01% triton-X100. Affinity-purified Gst-NEMO (221-317) was included as a negative control. The Δmp was measured by excitation at 485 nm and emission at 538 nm.
The kinetics of CARP-1 binding with APC-2 was determined, and whether this binding could be exploited to identify SMIs of CARP-1-APC-2 interaction was investigated. For this purpose, a FPA utilizing the affinity-purified Gst-APC-2 (685-754) protein and the fluorescein-tagged A-epitope peptide was developed as detailed in methods. […] The signal to background ratio of 6 underscored robustness of this assay. Since, the quality (precision) and suitability of the FPA for HTS is usually defined by the Z′ factor (25, 40), we utilized the positive and negative control mean signals (μc+ and μc−, respectively) and their standard deviations (σc+ and σc−) to calculate the Z′ factor using the equation Z′=1−[3(σc++σc−)/(μc+−μc−)]. […]

pIC50 | SMILES
6.12 | O=C1N(Cc2ccccc2Cl)c2ccccc2C12NN=C(c1ccccc1)S2 (centres unmarked) [CFM-4, 1-(2-chlorobenzyl)-5′-phenyl-3′H-spiro[indoline-3,2′-[1,3,4]thiadiazol]-2-one]
5.39 | Cc1cc(Br)cc2c1NC(=O)/C2=C1\SC(=S)NC1=O [CFM-1, (Z)-5-(5-bromo-7-methyl-2-oxoindolin-3-ylidene)-2-thioxothiazolidin-4-one]
